Two molecules from publication PMC4041448 (2014) can be followed below.

For assay [1], the system named is RNA hairpin with six 5'CUG/3'GUC internal loops (RNA, repeat) GGGAGAGGGUUUAAUCUGCUGCUGCUGCUGCUGUACGAAAGUACUGCUGCUGCUGCUGCUGAUUGGAUCCGCAAGG
Briefly: competition dialysis. To be noted: 110 mM KCl, 2 mM MgCl2, 2 mM CaCl2, 8 mM Na phosphate; 1 mM EDTA, pH 7.0, 20–22°C; 1 μM ligand, 1.33 μM RNA; compared with MBNL1 protein.

Assay [2] has as its system U·U RNA hairpin (5'CNG/3'GNC panel) (RNA, mismatch bulge abasic) GGGAGAGGGUUUAAUCUGUACGAAAGUACUGAUUGGAUCCGCAAGG
As to the kind of experiment: competition dialysis. To be noted: 110 mM KCl, 2 mM MgCl2, 2 mM CaCl2, 8 mM Na phosphate; 1 mM EDTA, pH 7.0, 20–22°C; 1 μM ligand, 1.56 μM RNA; bound ligand concentration.

Assay [3] concerns A-G RNA hairpin (5'CNG/3'GNC panel) (RNA, mismatch bulge abasic) GGGAGAGGGUUUAAUCAGUACGAAAGUACGGAUUGGAUCCGCAAGG
As to the kind of experiment: competition dialysis. To be noted: 110 mM KCl, 2 mM MgCl2, 2 mM CaCl2, 8 mM Na phosphate; 1 mM EDTA, pH 7.0, 20–22°C; 1 μM ligand, 1.56 μM RNA; bound ligand concentration.

For assay [4], the system named is no loop RNA (RNA, hairpin) GGGAGAGGGUUUAAUCAGUACGAAAGUACUGAUUGGAUCCGCAAGG
As to the kind of experiment: competition dialysis. To be noted: 110 mM KCl, 2 mM MgCl2, 2 mM CaCl2, 8 mM Na phosphate; 1 mM EDTA, pH 7.0, 20–22°C; 1 μM ligand, 1.56 μM RNA; bound ligand concentration.

Assay [5] relates to Cy3-(CUG)10 RNA (RNA, repeat) CUGCUGCUGCUGCUGCUGCUGCUGCUGCUG
Briefly: fluorescence titration (Cy3 emission). The settings on record: HEPES-buffered saline; 0.5% DMSO, 0.005% Tween-20; one-site fit.

Consider `COC(=O)c1ccc(O)c2nc3c(C=O)c(O)c(-c4c(O)c(C=O)c5nc6c(O)ccc(C(=O)OC)c6nc5c4O)c(O)c3nc12`, for which the binding entry in assay [1] and in assay [2] was “yes” in each case. Besides, the results for the “Bound Dilomofungin (Cb)” value in assay [3] and in assay [4] were 77.8 ± 33 nM and 228 ± 77 nM, respectively. This molecule showed a dissociation constant (KD) in assay [5] of 606 ± 300 nM.

On to `COC(=O)c1ccc(O)c2nc3c(C=O)c(O)cc(O)c3nc12`, for which the binding entry in assay [1] and in assay [2] was “yes” throughout. In assay [5], this molecule came in with a KD of 998 ± 180 nM.

Usually KD stands for the free concentration of one partner at which half of the binding sites on the other are occupied at equilibrium, for simple one-to-one binding.
